Patent publication US20110206689A1, “Molecular Determinants Associated With Prostate Cancer And Methods Of Use Thereof” (Dana-Farber Cancer Institute, Inc., priority 2010, published 2011)

Legend:
Format in all cases: cell-based, human
[1] = test system: TK1; test: Suppression of TK1 expression by shRNA in prostate cancer cell lines; details: lentiviral shRNA
Description: (§1) Immunoblots were performed as previously described {Boehm, 2005 #51}. The following antibodies were used: TK1 (Abcam, ab57757), AR (Santa Cruz, sc-7305), Flag (Sigma, M2), PDK1 (Becton Dickinson, 611070), p-PDK1 (Becton Dickinson, 558395), AKT (Cell Signaling, 9272), p-AKT1-Thr308 (Cell Signaling, 4056), p-AKT1-Ser473 (Cell Signaling, 9271), p-AKT1-Thr450 (Cell Signaling, 9267), p-AKT1-Tyr326 (Cell Signaling, 2968), Actin (Santa Cruz, sc-47778).
Stable suppression of TK1 and AR were accomplished by using the pLKO.1-puro lentiviral shRNA constructs previously described {Moffat, 2006 #52}. The sequences targeted by the hairpins are as follows: shTK1-3, […] (SEQ ID NO: 1); shTK1-4, […] (SEQ ID NO: 2); shTK1-5, […] (SEQ ID NO: 3); shAR-1, […] (SEQ ID NO: 4); shAR-4, […] (SEQ ID NO: 5); shAR-5, […] (SEQ ID NO: 6); shGFP, Experiments were performed in duplicate, in both the presence and absence of 1.5 ug/ml puromycin to monitor infection efficiency. Viable cells were counted using a Coulter Counter.
(§2) Next, we determined whether suppressing the expression of TK1 in prostate cancer cell lines that overexpress TK1 reverses their ability to proliferate or survive. […]

[2] = test system: prostate cancer cell lines; test: Effect of TK1 shRNA on proliferation of prostate cancer cell lines (all cultures); details: for cells remaining 12 days post infection: all cultures
Excerpt: FIG. 2. TK1 overexpression synergizes with AKT1 to promote hormone independent prostate cancer. a) Androgen independent tumor formation. LHSR-AR cells were infected with the indicated constructs and injected subcutaneously into castrated mice, except where indicated. M-myristoylated; F-Flag tagged. b) AKT1 and TK1 promote nuclear translocation of AR independent of androgen. H&E and immunhistochemical staining for AR in subcutaneous tumor sections derived from LHSR-AR cells infected with the indicated constructs. Staining of androgen dependent GFP tumor is shown as control. Minimum of 3 tumors were stained per sample and representative images are shown. c) TK1 chromosomal amplification in hormone sensitive and refractory tumors. DNA from 16 hormone sensitive (HS) and 23 hormone refractory (HR) human prostate tumors (from FIG. 1b) were hybridized onto SNP arrays and analyzed for TK1 copy number gain (CNG). The number and percentage of tumors with and without amplification are indicated. d) TK1 protein expression in hormone sensitive and refractory tumors. Prostate tumor microarrays containing 73 hormone sensitive (HS) and 11 hormone resistant (HS) tumor cores were analyzed for TK1 protein expression by immunohistochemistry. The number and percentage of tumors negative and positive for TK1 expression are indicated. d) Immunoblot analysis for TK1 expression in the indicated prostate cancer cell lines. Actin was used to control for loading. e) Effect of TK1 suppression on the proliferation of prostate cancer cells. […] Relative cell number is normalized to the shGFP control.
Stable suppression of TK1 and AR were accomplished by using the pLKO.1-puro lentiviral shRNA constructs previously described {Moffat, 2006 #52}. The sequences targeted by the hairpins are as follows: shTK1-3, […] (SEQ ID NO: 1); shTK1-4, […] (SEQ ID NO: 2); shTK1-5, […] (SEQ ID NO: 3); shAR-1, […] […] Viable cells were counted using a Coulter Counter.
as §2

[3] = test system: TK1; test: Androgen induction of TK1 protein expression in LNCaP cells (immunoblot); details: LNCaP cells in hormone depleted medium, 10 nM R1881, immunoblot
Description: FIG. 3. […] Androgen responsive LNCaP cells cultured in hormone depleted medium were treated with 10 nM of the synthetic androgen, R1881, for the indicated times, and TK1 expression was assayed by immunoblot analysis. […] Small hairpins targeting AR were introduced into LNCaP cells infected with TK1, or control uninfected LNCaP cells. Cell proliferation was monitored. Relative proliferation is normalized to the shGFP control.
as §1
TK1 has been reported to be induced by androgens in the rat prostate. […] To elucidate whether TK1 is sufficient to replace AR signaling in promoting cell proliferation and survival, we silenced AR expression in LNCaP cells by RNAi in the presence or absence of ectopic TK1 expression, and monitored cell death.

[4] = test system: C4-2 cells; test: Effect of TK1 suppression by shRNA on cell number of prostate cancer cells (viable cells counted with Coulter Counter); details: C4-2 cultures, relative to shGFP control
Excerpt: (§3) FIG. 2. TK1 overexpression synergizes with AKT1 to promote hormone independent prostate cancer. a) Androgen independent tumor formation. LHSR-AR cells were infected with the indicated constructs and injected subcutaneously into castrated mice, except where indicated. M-myristoylated; F-Flag tagged. b) AKT1 and TK1 promote nuclear translocation of AR independent of androgen. H&E and immunhistochemical staining for AR in subcutaneous tumor sections derived from LHSR-AR cells infected with the indicated constructs. Staining of androgen dependent GFP tumor is shown as control. Minimum of 3 tumors were stained per sample and representative images are shown. c) TK1 chromosomal amplification in hormone sensitive and refractory tumors. DNA from 16 hormone sensitive (HS) and 23 hormone refractory (HR) human prostate tumors (from FIG. 1b) were hybridized onto SNP arrays and analyzed for TK1 copy number gain (CNG). The number and percentage of tumors with and without amplification are indicated. d) TK1 protein expression in hormone sensitive and refractory tumors. Prostate tumor microarrays containing 73 hormone sensitive (HS) and 11 hormone resistant (HS) tumor cores were analyzed for TK1 protein expression by immunohistochemistry. The number and percentage of tumors negative and positive for TK1 expression are indicated. d) Immunoblot analysis for TK1 expression in the indicated prostate cancer cell lines. Actin was used to control for loading. e) Effect of TK1 suppression on the proliferation of prostate cancer cells. Cells were infected with three different hairpins targeting TK1 and a control hairpin targeting GFP, and cell numbers determined 5 days post infection. Relative cell number is normalized to the shGFP control.
(§4) LHSR-AR {Berger, 2004 #15}, LNCaP {Horoszewicz, 1980 #23}, C4-2 {Wu, 1994 #18}, CL-1 {Patel, 2000 #16}, LNCaP-abl {Culig, 1999 #49} and LAPC4 {Klein, 1997 #34} cells have previously been described. LHSR-AR cells were cultured in PrEGM with growth supplements (Lonza). LNCaP were cultured in RPMI supplemented with 10% fetal bovine serum, 1 mM sodium pyruvate and 10 mM Hepes. C4-2, CL-1 and LNCaP-abl were cultured in phenol red free RMPI supplemented with 10% charcoal stripped fetal bovine serum, 1 mM sodium pyruvate and 10 mM Hepes. LAPC4 cells were cultured in IMDM supplemented with 10% fetal bovine serum and 1 nM R1881.
(§5) Stable suppression of TK1 and AR were accomplished by using the pLKO.1-puro lentiviral shRNA constructs previously described {Moffat, 2006 #52}. The sequences targeted by the hairpins are as follows: shTK1-3, […] […] Viable cells were counted using a Coulter Counter.
as §2

[5] = test system: CL-1 cells; test: as above; details: relative to shGFP control
Excerpt: as §3, §4, §5, §2

Row | Compound | suppression of TK1 expression [1] | proliferation ([2]; prostate cancer cell lines, 5 days post infection) | TK1 protein expression [3] | cell number 5 days post infection [4] | cell number 5 days post infection [5] | cells remaining 12 days post infection [2]
1 | shTK1-3: pLKO.1-puro lentiviral shRNA targeting TK1 sequence AGACCGTAATTGTGGCTGCAC (SEQ ID NO: 1) (target site or template, no part of the molecule) | did not efficiently suppress TK1 expression | did not affect proliferation |  |  |  | 
2 | C[C@]1(O)CC[C@H]2[C@@H]3CCC4=CC(=O)CCC4=C3C=C[C@@]21C [R1881] |  |  | androgen induced |  |  | 
3 | shTK1-4: pLKO.1-puro lentiviral shRNA targeting TK1 sequence GGGAAGCCGCCTATACCAAGA (SEQ ID NO: 2) (target site or template, no part of the molecule) |  |  |  | reduced cell number | did not significantly affect | few cells remaining
4 | shTK1-5: pLKO.1-puro lentiviral shRNA targeting TK1 sequence TGTCGGCTCTGCTACTTCAAG (SEQ ID NO: 3) (target site or template, no part of the molecule) |  |  |  | reduced cell number | did not significantly affect | few cells remaining
